From PubChem BioAssay (NCI)
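Protocol summary: plate cells (96-well), add compound at 5 concentrations, incubate 48 h, interpolate endpoints linearly. GI50 is the concentration that inhibits growth by half. TGI denotes the concentration required for complete inhibition of growth.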

Columns and labels:
Assay in all cases: growth of human tumour cells (NCI), 48 h
NCI-H23 lung = system: NCI-H23 lung
LOX IMVI melanoma = system: LOX IMVI melanoma
SNB-19 CNS = system: SNB-19 CNS
A549 NSCLC = system: A549 NSCLC
SF-268 CNS = system: SF-268 CNS
HCT-15 colon = system: HCT-15 colon
BT-549 breast = system: BT-549 breast
OVCAR-4 ovarian = system: OVCAR-4 ovarian
HCC-2998 colon = system: HCC-2998 colon
COLO 205 colon = system: COLO 205 colon
MALME-3M melanoma = system: MALME-3M melanoma
IGROV1 ovarian = system: IGROV1 ovarian
RXF 393 renal = system: RXF 393 renal
UO-31 renal = system: UO-31 renal
SF-539 CNS = system: SF-539 CNS
NCI-H226 lung = system: NCI-H226 lung
UACC-257 melanoma = system: UACC-257 melanoma
HS 578T breast = system: HS 578T breast
OVCAR-8 ovarian = system: OVCAR-8 ovarian
DU-145 prostate = system: DU-145 prostate
NCI-H460 lung = system: NCI-H460 lung
SK-MEL-5 melanoma = system: SK-MEL-5 melanoma
HCT-116 colon = system: HCT-116 colon
SF-295 CNS = system: SF-295 CNS
UACC-62 melanoma = system: UACC-62 melanoma
MDA-N = system: MDA-N
K-562 leukemia = system: K-562 leukemia
EKVX NSCLC = system: EKVX NSCLC
RPMI-8226 leukemia = system: RPMI-8226 leukemia
OVCAR-3 ovarian = system: OVCAR-3 ovarian
MCF7 breast = system: MCF7 breast
SK-MEL-28 melanoma = system: SK-MEL-28 melanoma
CCRF-CEM leukemia = system: CCRF-CEM leukemia
HL-60(TB) leukemia = system: HL-60(TB) leukemia
SN12C renal = system: SN12C renal
HOP-62 NSCLC = system: HOP-62 NSCLC
TK-10 renal = system: TK-10 renal
OVCAR-5 ovarian = system: OVCAR-5 ovarian
KM12 colon = system: KM12 colon
MOLT-4 leukemia = system: MOLT-4 leukemia
A498 renal = system: A498 renal
ACHN renal = system: ACHN renal
MDA-MB-435 = system: MDA-MB-435
SNB-75 CNS = system: SNB-75 CNS
HOP-92 NSCLC = system: HOP-92 NSCLC
SR leukemia = system: SR leukemia
M14 melanoma = system: M14 melanoma
T-47D breast = system: T-47D breast
SK-MEL-2 melanoma = system: SK-MEL-2 melanoma
HT29 colon = system: HT29 colon
NCI-H522 lung = system: NCI-H522 lung
CAKI-1 renal = system: CAKI-1 renal
786-0 renal = system: 786-0 renal
SW-620 colon = system: SW-620 colon
NCI/ADR-RES ovarian = system: NCI/ADR-RES ovarian
MDA-MB-231 breast = system: MDA-MB-231 breast
SK-OV-3 ovarian = system: SK-OV-3 ovarian
PC-3 prostate = system: PC-3 prostate

In the case of `C[C@@H]1CCC2[C@@H](C)[C@@H](OC3CCC(O)CC3)OC3O[C@@]4(C)CCC1[C@]32OO4` (stereo partly specified), the GI50 (NCI-H23 lung) is reported as 96.7 µM, the TGI (NCI-H23 lung) is reported as over 100 µM and the GI50 (LOX IMVI melanoma) is reported as 24.5 µM. For the same compound, the TGI (LOX IMVI melanoma) was over 100 µM, the GI50 (SNB-19 CNS) was over 100 µM and the TGI (SNB-19 CNS) was over 100 µM. For the same compound, the GI50 (A549 NSCLC) was 67.1 µM, the TGI (A549 NSCLC) was over 100 µM and the GI50 (SF-268 CNS) was 76.5 µM. It also gave a TGI (SF-268 CNS) of over 100 µM, a GI50 (HCT-15 colon) of 3.61 µM and a TGI (HCT-15 colon) of over 100 µM. It also gave a GI50 (BT-549 breast) of over 100 µM, a TGI (BT-549 breast) of over 100 µM and a GI50 (OVCAR-4 ovarian) of 46.4 µM. For the same compound, the TGI (OVCAR-4 ovarian) was over 100 µM, the GI50 (HCC-2998 colon) was over 100 µM and the TGI (HCC-2998 colon) was over 100 µM. The GI50 (COLO 205 colon) was 8.83 µM, the TGI (COLO 205 colon) was 32.7 µM and the GI50 (MALME-3M melanoma) was over 100 µM. The TGI (MALME-3M melanoma) was over 100 µM, the GI50 (IGROV1 ovarian) was over 100 µM and the TGI (IGROV1 ovarian) was over 100 µM. It also gave a GI50 (RXF 393 renal) of over 100 µM, a TGI (RXF 393 renal) of over 100 µM and a GI50 (UO-31 renal) of 6.3 µM. It also gave a TGI (UO-31 renal) of over 100 µM, a GI50 (SF-539 CNS) of over 100 µM and a TGI (SF-539 CNS) of over 100 µM. The GI50 (NCI-H226 lung) was over 100 µM, the TGI (NCI-H226 lung) was over 100 µM and the GI50 (UACC-257 melanoma) was over 100 µM. For the same compound, the TGI (UACC-257 melanoma) was over 100 µM, the GI50 (HS 578T breast) was 90.2 µM and the TGI (HS 578T breast) was over 100 µM. For the same compound, the GI50 (OVCAR-8 ovarian) was 16.1 µM, the TGI (OVCAR-8 ovarian) was over 100 µM and the GI50 (DU-145 prostate) was over 100 µM. For the same compound, the TGI (DU-145 prostate) was over 100 µM, the GI50 (NCI-H460 lung) was over 100 µM and the TGI (NCI-H460 lung) was over 100 µM. It also gave a GI50 (SK-MEL-5 melanoma) of 36.3 µM, a TGI (SK-MEL-5 melanoma) of over 100 µM and a GI50 (HCT-116 colon) of 71.2 µM. For the same compound, the TGI (HCT-116 colon) was over 100 µM, the GI50 (SF-295 CNS) was 45.8 µM and the TGI (SF-295 CNS) was over 100 µM. It also gave a GI50 (UACC-62 melanoma) of 72 µM, a TGI (UACC-62 melanoma) of over 100 µM and a GI50 (MDA-N) of over 100 µM. The TGI (MDA-N) was over 100 µM, the GI50 (K-562 leukemia) was 26.8 µM and the TGI (K-562 leukemia) was over 100 µM. The GI50 (EKVX NSCLC) was 32.5 µM, the TGI (EKVX NSCLC) was over 100 µM and the GI50 (RPMI-8226 leukemia) was 7.04 µM. The TGI (RPMI-8226 leukemia) was over 100 µM, the GI50 (OVCAR-3 ovarian) was 66.7 µM and the TGI (OVCAR-3 ovarian) was over 100 µM. For the same compound, the GI50 (MCF7 breast) was 38.5 µM, the TGI (MCF7 breast) was over 100 µM and the GI50 (SK-MEL-28 melanoma) was over 100 µM. It also gave a TGI (SK-MEL-28 melanoma) of over 100 µM, a GI50 (CCRF-CEM leukemia) of 37.8 µM and a TGI (CCRF-CEM leukemia) of over 100 µM. The GI50 (HL-60(TB) leukemia) was 4.35 µM, the TGI (HL-60(TB) leukemia) was over 100 µM and the GI50 (SN12C renal) was over 100 µM. It also gave a TGI (SN12C renal) of over 100 µM, a GI50 (HOP-62 NSCLC) of over 100 µM and a TGI (HOP-62 NSCLC) of over 100 µM. For the same compound, the GI50 (TK-10 renal) was 36.8 µM, the TGI (TK-10 renal) was over 100 µM and the GI50 (OVCAR-5 ovarian) was 82.4 µM. It also gave a TGI (OVCAR-5 ovarian) of over 100 µM, a GI50 (KM12 colon) of 51.6 µM and a TGI (KM12 colon) of over 100 µM. For the same compound, the GI50 (MOLT-4 leukemia) was 10.1 µM, the TGI (MOLT-4 leukemia) was over 100 µM and the GI50 (A498 renal) was over 100 µM. For the same compound, the TGI (A498 renal) was over 100 µM, the GI50 (ACHN renal) was 67.2 µM and the TGI (ACHN renal) was over 100 µM. It also gave a GI50 (MDA-MB-435) of over 100 µM, a TGI (MDA-MB-435) of over 100 µM and a GI50 (SNB-75 CNS) of over 100 µM. The TGI (SNB-75 CNS) was over 100 µM, the GI50 (HOP-92 NSCLC) was 23.1 µM and the TGI (HOP-92 NSCLC) was over 100 µM. It also gave a GI50 (SR leukemia) of 7.84 µM, a TGI (SR leukemia) of over 100 µM and a GI50 (M14 melanoma) of over 100 µM. For the same compound, the TGI (M14 melanoma) was over 100 µM, the GI50 (T-47D breast) was 19.9 µM and the TGI (T-47D breast) was over 100 µM. The GI50 (SK-MEL-2 melanoma) was 92.6 µM, the TGI (SK-MEL-2 melanoma) was over 100 µM and the GI50 (HT29 colon) was 97.4 µM. It also gave a TGI (HT29 colon) of over 100 µM, a GI50 (NCI-H522 lung) of 38.5 µM and a TGI (NCI-H522 lung) of over 100 µM. For the same compound, the GI50 (CAKI-1 renal) was 95.9 µM, the TGI (CAKI-1 renal) was over 100 µM and the GI50 (786-0 renal) was over 100 µM. For the same compound, the TGI (786-0 renal) was over 100 µM, the GI50 (SW-620 colon) was over 100 µM and the TGI (SW-620 colon) was over 100 µM. The GI50 (NCI/ADR-RES ovarian) was 39.9 µM, the TGI (NCI/ADR-RES ovarian) was over 100 µM and the GI50 (MDA-MB-231 breast) was over 100 µM. It also gave a TGI (MDA-MB-231 breast) of over 100 µM, a GI50 (SK-OV-3 ovarian) of over 100 µM and a TGI (SK-OV-3 ovarian) of over 100 µM. The GI50 (PC-3 prostate) was 23.9 µM and the TGI (PC-3 prostate) was over 100 µM.
